Assay [1] concerns Sprague Dawley rats. The assay is described as follows: Bennett model of mechanical analgesia (sciatic nerve chronic constriction, paw withdrawal threshold).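 Note: log paw withdrawal threshold scaled from vehicle group mean (0%) to naive 15 g value (100%).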 It counts as in vivo, rat. On the procedure:
The Bennett model of mechanical analgesia is used to assess the analgesic effects of compounds as measured by paw withdrawal threshold. Bennett GJ, Xie YK, “A peripheral mononeuropathy in rat that produces disorders of pain sensation like those seen in man,” Pain 33:87-107, 1988. […] Vehicle animals receive the surgery and then receive vehicle rather than test compound. Animals were tested 1 hr, 24 h and 1 wk post-test compound or vehicle administration.
Male 2-3 month old Sprague Dawley rats were used. Harlan was the supplier for all studies. Rats were housed in Lucite cages with aspen wood chip bedding, maintained on a 12:12 light:dark cycle (lights on at 5 AM), and given ad libitum access to Purina lab chow (USA) and tap water throughout the study.
Rats were anesthetized using inhaled isoflurane (2.5%). Sciatic nerve chronic constriction nerve injury surgery was performed as previously described (Bennett and Xie, 1988). An incision (˜1.5 cm in length) was made with a scalpel blade dorsally through skin on the right hind limb, parallel and posterior to femur. Using a small pointed hemostat, the biceps femoris and gluteus superficialis muscles were separated. Using curved blunt forceps, the common sciatic nerve was isolated and exposed. For the mechanical analgesia studies, the whole sciatic nerve was ligated. Using hemostats/forceps and chromic gut (5-0), the nerve was loosely ligated with a square knot; 3 ligatures, 1 mm apart were placed on the nerve. […] Testing occurred approximately 2 weeks post-surgery.
During testing, rats were acclimated to the surface of a suspended wire mesh grid (1 cm×1 cm, with the wire being 0.3 cm in diameter) for 15-20 min. Starting from the smallest, each Von Frey filament was pressed perpendicularly to the plantar surface of the affected (ipsilateral) hind paw until slightly bent and then held for 6 second. If an obvious hind paw withdrawal or a flinching behavior immediately after the withdrawal of the filament was not observed, the next larger filament was used in the same manner. In case of a response, a lower filament was used. This was repeated until six responses were collected.
For all studies, animals were baselined prior to study start to test for allodynia (defined as a paw withdrawal threshold under 5). A subset of animals was tested with gabapentin (150 mg/kg, PO) to ensure at least 50% analgesia. Once it was confirmed animals were ready for study initiation, animals were balanced across groups. All study investigators were blind to treatment conditions. Animals were dosed with 0.1, 1 or 10 mg/kg of test compound via oral gavage (PO), control sets of animals were dosed with gabapentin (150 mg/kg, PO) or vehicle (0.5% Na-CMC in 0.9% sterile saline, PO). Testing occurred 1 h post-dosing with animals retested 24 hrs and 1 week post-dosing. The percent analgesia calculations for each animal were made using the following equation: % analgesia=[(log(x)−y)/((log (z)−y)]*100, where x=the paw withdrawal threshold for the drug-treated animal in grams, y=the average of the log(x) values for the vehicle treated group, and z=the paw withdrawal threshold for naïve animals in grams (historical value of 15 used).
The results are shown in the table below where the percentage of analgesia is measured at 1 hour, 24 hours, and 1 week after compound administration. Since each study had its own gabapentin control group, an example gabapentin control value is shown.

For assay [2], the system named is rats. The assay can be described thus: positive emotional learning (PEL) test, 50-kHz ultrasonic vocalizations. It is filed as in vivo, rat. The note with it: PO, one hour after administration. On the procedure:
Experiments were conducted as described in Burgdorf et al., “The effect of selective breeding for differential rates of 50-kHz ultrasonic vocalizations on emotional behavior in rats,” Devel. Psychobiol., 51:34-46 (2009). Rat 50-kHz ultrasonic vocalization (hedonic USVs) is a validated model for the study of positive affective state and is best elicited by rough-and-tumble play.
The PEL assay measures the acquisition of positive (hedonic) 50-kHz ultrasonic vocalizations (USVs) to a social stimulus, heterospecific rough and tumble play stimulation. Heterospecific rough-and-tumble play stimulation was administered by the experimenter's right hand. One hour after administration of test compound or vehicle negative control (0.5% sodium carboxymethyl cellulose in […] sterile saline), animals received 3 min of heterospecific rough-and-tumble play that consisted of alternating 15 sec blocks of heterospecific play and 15 sec of no-stimulation. High frequency ultrasonic vocalizations (USVs) were recorded and analyzed by sonogram with Avasoft SASlab Pro (Germany) as previously described by Burgdorf et al., “Positive emotional learning is regulated in the medial prefrontal cortex by GluN2B-containing NMDA receptors,” Neuroscience, 192:515-523 (2011). Frequency modulated 50-kHz USVs that occurred during each of the no-stimulation periods were quantified to measure PEL. Animals were not habituated to play stimulation before testing. Positive emotional learning was measured during the conditioned stimulus (CS) trials preceding the tickle unconditioned stimulus (UCS) trials. Animals received 15 second trials consisting of 6 CS and 6 UCS trials each (3 min total).
The table below summarizes the findings. As each experiment includes its own vehicle group, an example (typical) vehicle score is shown. Max effect (mean number of 50 kHz USVs per 15 seconds) is reported as ^: <6.0; *: 6-10.9; **: 11-16.9; ***: 17-22.

In the case of `CC1CCC2(CC1)CNC2=O` (racemic) [Compound AD, 7-methyl-2-azaspiro[3.5]nonan-1-one], the “% analgesia” value in assay [1] (0.1 mg/kg PO, 1 wk) is given as 0%; in assay [1] (0.1 mg/kg PO, 1 h) it was 18.4%; in assay [1] (0.1 mg/kg PO, 24 h), 4.7%; in assay [1] (1 mg/kg PO, 1 wk), 17.9%; in assay [1] (1 mg/kg PO, 1 h), 15.4%; in assay [1] (1 mg/kg PO, 24 h), 13.8%. Besides, the “% analgesia” value in assay [1] (10 mg/kg PO, 1 wk) turned out to be 15.5%; in assay [1] (10 mg/kg PO, 1 h), 15.3%; in assay [1] (10 mg/kg PO, 24 h) it was 7.6%. In addition, in assay [2] (dose .001-1 mg/kg), the “Max Effect (mean number of 50 kHz USVs per 15 seconds)” value is listed as “*** (***: 17-22)”.
For `C[C@@H](O)[C@H](NC1CCC2(CC1)CNC2=O)C(N)=O` (single isomer, unassigned) [AP], the “% analgesia” value in assay [1] (10 mg/kg PO, 1 wk) was 0%; in assay [1] (10 mg/kg PO, 1 h), 28.0%; in assay [1] (10 mg/kg PO, 24 h) it was 0%. Further, the “Max Effect (mean number of 50 kHz USVs per 15 seconds)” value in assay [2] (dose .1 mg/kg) is on record as “** (**: 11-16.9)”.
With `O=C1NCC12CCC(OCc1ccccc1)CC2` (single isomer, unassigned) [AI, 7-(benzyloxy)-2-azaspiro[3.5]nonan-1-one], the “% analgesia” value is 7.7% in assay [1] (0.1 mg/kg PO, 1 wk); 5.3% in assay [1] (0.1 mg/kg PO, 1 h); 7.7% in assay [1] (0.1 mg/kg PO, 24 h); 10.2% in assay [1] (1 mg/kg PO, 1 wk); 40.4% in assay [1] (1 mg/kg PO, 1 h); 23.4% in assay [1] (1 mg/kg PO, 24 h). In addition, the “% analgesia” value in assay [1] (10 mg/kg PO, 1 wk) was found to be 22.0%; in assay [1] (10 mg/kg PO, 1 h) it was 50.0%; in assay [1] (10 mg/kg PO, 24 h) it was 33.2%. Also, in assay [2] (dose .001-1 mg/kg), the “Max Effect (mean number of 50 kHz USVs per 15 seconds)” value is given as “** (**: 11-16.9)”.
On to `COc1ccc(CN2CC3(CCC(O)CC3)C2=O)cc1` (centres unmarked) [AG], for which the “% analgesia” value in assay [1] (0.1 mg/kg PO, 1 wk) is recorded as 1.7%; in assay [1] (0.1 mg/kg PO, 1 h), 26.7%; in assay [1] (0.1 mg/kg PO, 24 h) it was 14.8%; in assay [1] (1 mg/kg PO, 1 wk), 0%; in assay [1] (1 mg/kg PO, 1 h), 41.5%; in assay [1] (1 mg/kg PO, 24 h) it was 23.7%. In addition, the “% analgesia” value is 0% in assay [1] (10 mg/kg PO, 1 wk); 56.9% in assay [1] (10 mg/kg PO, 1 h); 26.7% in assay [1] (10 mg/kg PO, 24 h). For the same molecule, the “Max Effect (mean number of 50 kHz USVs per 15 seconds)” value in assay [2] (dose .001-1 mg/kg) is on record as “** (**: 11-16.9)”.
Regarding `O=C1NCC12CCC(O)CC2` (centres unmarked) [AL, 7-hydroxy-2-azaspiro[3.5]nonan-1-one], the “% analgesia” value in assay [1] (0.1 mg/kg PO, 1 wk) amounted to 3.1%; in assay [1] (0.1 mg/kg PO, 1 h) it was 20.9%; in assay [1] (0.1 mg/kg PO, 24 h) it was 10.8%; in assay [1] (1 mg/kg PO, 1 wk) it was 6.6%; in assay [1] (1 mg/kg PO, 1 h) it was 52.7%; in assay [1] (1 mg/kg PO, 24 h) it was 14.4%. For the same molecule, the “% analgesia” value in assay [1] (10 mg/kg PO, 1 wk) is recorded as 1.1%; in assay [1] (10 mg/kg PO, 1 h) it was 61.9%; in assay [1] (10 mg/kg PO, 24 h), 13.8%. Moreover, in assay [2] (dose .001-1 mg/kg), the “Max Effect (mean number of 50 kHz USVs per 15 seconds)” value was “** (**: 11-16.9)”.

These data come from patent US10961189B2, “Spiro-lactam NMDA receptor modulators and uses thereof” (Aptinyx Inc., priority 2016, dated 2021).
